Experiments:
[1] = test system: antibodies in sera from SARS patients (sera 1a, 1b, 2, 6, 37, 62, London, SARS-yellow, SARS-green); format: binding, human; set-up: Binding of serum 6 to linear peptides of protein X1 of SARS-CoV Urbani / Binding of serum 37 to linear peptides of protein X1 of SARS-CoV Urbani / Binding of serum 6 to looped/cyclic peptide (PEPSCAN-ELISA) / Binding of serum 37 to looped/cyclic peptide (PEPSCAN-ELISA) / Binding of serum 37 to looped/cyclic peptides of protein X1 of SARS-CoV Urbani / Binding of serum 6 to linear peptides of protein X2 / Binding of serum 37 to linear peptides of protein X2 / Binding of serum 37 to looped/cyclic peptides of protein X2 of SARS-CoV Urbani / Binding of serum 6 to linear peptides of protein M of SARS-CoV Urbani / Binding of serum 37 to linear peptides of protein M of SARS-CoV Urbani / Binding of serum 6 to looped/cyclic peptides of protein M of SARS-CoV Urbani / Binding of serum 37 to looped/cyclic peptides of protein M of SARS-CoV Urbani / Binding of serum 6 to linear peptides of protein X3 of SARS-CoV Urbani / Binding of serum 37 to linear peptides of protein X3 of SARS-CoV Urbani / Binding of serum 37 to looped/cyclic peptides of protein X3 of SARS-CoV Urbani / Binding of serum 6 to linear peptides of protein X4 of SARS-CoV Urbani / Binding of serum 37 to linear peptides of protein X4 of SARS-CoV Urbani / Binding of serum 37 to looped/cyclic peptides of protein X4 of SARS-CoV Urbani / Binding of serum 6 to linear peptides of protein X5 of SARS-CoV Urbani / Binding of serum 37 to linear peptides of protein X5 of SARS-CoV Urbani / Binding of serum 37 to looped/cyclic peptides of protein X5 of SARS-CoV Urbani / Binding of serum 6 to linear peptides of protein N of SARS-CoV Urbani / Binding of serum 37 to linear peptides of protein N of SARS-CoV Urbani / Binding of serum 6 to linear peptide (PEPSCAN-ELISA) / Binding of serum 1a to looped/cyclic peptides of protein N of SARS-CoV Urbani / Binding of serum 1b to looped/cyclic peptides of protein N of SARS-CoV Urbani / Binding of serum 2 to looped/cyclic peptides of protein N of SARS-CoV Urbani / Binding of serum 6 to looped/cyclic peptides of protein N of SARS-CoV Urbani / Binding of serum 37 to looped/cyclic peptides of protein N of SARS-CoV Urbani / Binding of serum 62 to looped/cyclic peptides of protein N of SARS-CoV Urbani / Binding of serum London to looped/cyclic peptides of protein N of SARS-CoV Urbani / Binding of serum SARS-green to looped/cyclic peptides of protein N of SARS-CoV Urbani: unit not given here
[2] = test system: control sera (pooled serum of ten healthy LUMC hospital workers; commercial negative donor pooled serum from the Dutch bloodbank); format: binding, human; set-up: Binding of Control serum LUMC to linear peptides / Binding of Control serum Blood-bank to linear peptides / Binding of Control serum LUMC to looped peptides / Binding of Control Serum Blood-Bank to Looped peptides / Binding of Control serum LUMC to linear peptides of the protein M of SARS-CoV Urbani / Binding of Control serum Blood-bank to linear peptides of the protein M of SARS-CoV Urbani / Binding of Control serum LUMC to looped peptides of the protein M of SARS-CoV Urbani / Binding of Control Serum Blood-Bank to Looped peptides of the protein M of SARS-CoV Urbani: unit not given here
[3] = test system: rabbit serum obtained by immunizing a rabbit with the SARS-CoV strain Frankfurt 1; format: binding; set-up: Binding of a rabbit serum to linear peptides / Binding of a rabbit serum to looped peptides / Rabbit serum linear peptides / Rabbit serum looped peptides / Binding of a rabbit serum to linear peptides of protein N of SARS-CoV Urbani (Rabbit serum linear peptides) / Binding of a rabbit serum to looped/cyclic peptides of protein N of SARS-CoV Urbani (Rabbit serum looped peptides): unit not given here

Row | Sequence | Binding of serum 1a to linear peptides of protein X1 of SARS-CoV Urbani [1] | Binding of serum 1b to linear peptides of protein X1 of SARS-CoV Urbani [1] | Binding of serum 2 to linear peptides of protein X1 of SARS-CoV Urbani [1] | Binding of serum 6 to linear peptides of protein X1 of SARS-CoV Urbani [1] | Binding of serum 37 to linear peptides of protein X1 of SARS-CoV Urbani [1] | Binding of serum 62 to linear peptides of protein X1 of SARS-CoV Urbani [1] | Binding of serum London to linear peptides of protein X1 of SARS-CoV Urbani [1] | Binding of serum SARS-green to linear peptides of protein X1 of SARS-CoV Urbani [1] | Binding of serum SARS-yellow to linear peptides of protein X1 of SARS-CoV Urbani [1] | Binding of Control Serum Blood-Bank to Looped peptides [2] | Binding of Control serum Blood-bank to linear peptides [2] | Binding of Control serum LUMC to linear peptides [2] | Binding of Control serum LUMC to looped peptides [2] | Binding of a rabbit serum to linear peptides [3] | Binding of a rabbit serum to looped peptides [3] | further results
1 | SVTDTIVVTEGDGIS | 0.6 | 0.5 | 0.4 | 0.4 | 0.5 | 0.5 | 0.2 | 0.1 | 0.4 | 0.3 | 0.4 | 0.4 | 0.3 | 0.1 | 0.4 | Binding of serum 1a to looped/cyclic peptides of protein X1 of SARS-CoV Urbani [1]: 0.3; Binding of serum 1b to looped/cyclic peptides of protein X1 of SARS-CoV Urbani [1]: 0.2; Binding of serum 2 to looped/cyclic peptides of protein X1 of SARS-CoV Urbani [1]: 0.1; Binding of serum 6 to looped/cyclic peptides of protein X1 of SARS-CoV Urbani [1]: 0.1; Binding of serum 37 to looped/cyclic peptides of protein X1 of SARS-CoV Urbani [1]: 0.3; Binding of serum 62 to looped/cyclic peptides of protein X1 of SARS-CoV Urbani [1]: 0.3; Binding of serum London to looped/cyclic peptides of protein X1 of SARS-CoV Urbani [1]: 0.1; Binding of serum SARS-green to looped/cyclic peptides of protein X1 of SARS-CoV Urbani [1]: 0.2; Binding of serum SARS-yellow to looped/cyclic peptides of protein X1 of SARS-CoV Urbani [1]: 0.2
2 | TATIPLQASLPFGWL | 0.9 | 0.8 | 0.6 | 0.7 | 0.7 | 0.7 | 0.3 | 0.5 | 0.3 | 0.8 | 1.0 | 0.8 | 0.8 | 0.1 | 0.6 | Binding of serum 1a to looped/cyclic peptide (PEPSCAN-ELISA) [1]: 0.7; Binding of serum 1b to looped/cyclic peptide (PEPSCAN-ELISA) [1]: 0.6; Binding of serum 2 to looped/cyclic peptide (PEPSCAN-ELISA) [1]: 0.5; Binding of serum 6 to looped/cyclic peptide (PEPSCAN-ELISA) [1]: 0.5; Binding of serum 37 to looped/cyclic peptide (PEPSCAN-ELISA) [1]: 0.8; Binding of serum 62 to looped/cyclic peptide (PEPSCAN-ELISA) [1]: 0.8; Binding of serum London to looped/cyclic peptide (PEPSCAN-ELISA) [1]: 0.3; Binding of serum SARS-green to looped/cyclic peptide (PEPSCAN-ELISA) [1]: 0.5; Binding of serum SARS-yellow to looped/cyclic peptide (PEPSCAN-ELISA) [1]: 0.5

Reference: patent publication US20070128217A1 (priority 2003, published 2007)
